Data taken from patent publication US20110124574A1, “RESTORATION OF ESTROGEN RECEPTOR-(ALPHA) ACTIVITY” (priority 2008, published 2011).
Where no end group is shown, it is not given here. The star is where a group is joined. For = O=C*

B1: recombinant Wnt-5a: recombinant Wnt-5a protein (R&D Systems) (protein, UniProt P41221 62-380, looked up)
Protein Wnt-5a: IIGAQPLCSQLAGLSQGQKKLCHLYQDHMQYIGEGAKTGIKECQYQFRHRRWNCSTVDNTSVFGRVMQIGSRETAFTYAVSAAGVVNAMSRACREGELSTCGCSRAARPKDLPRDWLWGGCGDNIDYGYRFAKEFVDARERERIHAKGSYESARILMNLHNNEAGRRTVYNLADVACKCHGVSGSCSLKTCWLQLADFRKVGDALKEKYDSAAAMRLNSRGKLVQVNSRFNSPTTQDLVYIDPSPDYCVRNESTGSLGTQGRLCNKTSEGMDGCELMCCGRGYDQFKTVQTERCHCKFHWCCYVKCKKCTEIVDQFVCK

What was measured:
[1] = system: MDA-MB-231 cells; test: Nuclear (Hoechst) staining for apoptotic cells after tamoxifen; type: cell-based, human; settings: MDA-MB-231, stimulation 24 and 48 hours, tamoxifen 5 μM for the last 20 hours
Experimental: MDA-MB-231 cells were grown in 6 well plates and stimulated with recombinant Wnt-5a protein (rW5a) or the Wnt-5a derived Foxy-5 peptide (F5), for 24 or 48 h. Cells were treated with tamoxifen for the final 20 h and their apoptotic responses were measured via different methods. […] Arrows highlight apoptotic cells. Bars represent […]. B: Following treatment with rW5a, F5 and tamoxifen, or tamoxifen alone, cells were lysed and subjected to SDS-PAGE, transferred to nitrocellulose membranes and blotted for cleaved caspase 3. C: Treated cells were assessed for their relative caspase 3 activity using fluorometric spectrophotometry. The graph represents 6 separate experiments. * P<0.01, ** P<0.001. D: MTT assays were also performed on MDA-MB-231 cells treated with rWnt-5a, F5 and tamoxifen, or tamoxifen alone (MDA-MB-231 and MCF-7 cells) to assess cell growth inhibition. The graph represents the average of 6 separate experiments, with standard deviation represented by error bars. ** P<0.01, *** P<0.001.
MDA-MB-231 cells were plated on cover slips and allowed to adhere. Wnt-5a (0.6 μg/ml) or Foxy-5 (100 μM) were added for 24 or 48 hours. Cells were then treated with tamoxifen (5 μM) for the last 20 hours. MCF-7 cells were used as a positive control. […] The morphology was analyzed with Nikon E800 Eclipse Microscope with 60× objective.

[2] = system: murine ERα; test: In vivo ERα RT-PCR in 4T1 primary breast tumors of Balb/C mice; parameters: species or system mouse; settings: Balb/C mice with 4T1 cells in mammary fat pads, 20 μg every fourth day for 25 days
Experimental: 2.5×10^4 4T1 breast cancer cells were inoculated into the mammary fat pads of 8-week old Balb/C mice. The animals were subsequently treated with either PBS alone, the Rdm control peptide (20 μg) or Foxy-5 (20 μg), every 4th day, for 25 days. RNA was extracted from primary breast tumors from 4 animals in each group, and subjected to RT-PCR for murine ERα. Shown are primary tumor samples from two animals of each treatment group.
2.5×10^4 4T1 breast cancer cells were inoculated into the mammary fat pads of 8 week old Balb/C mice, that were subsequently treated with either PBS alone, the Rdm control peptide (20 μg), or Foxy-5 (20 μg) every 4th day, for 25 days as described in a previous publication from the inventors (9). RNA was extracted from flash frozen primary breast tumors from 4 animals in each group, and subjected to RT-PCR for murine ERα.

[3] = system: ERα; test: RT-PCR of estrogen responsive genes CATD and EBAG9 after estradiol and tamoxifen; type: cell-based, human; settings: MDA-MB-231, hormone free media, pretreatment, estradiol plus tamoxifen, at 48 hours
Experimental: MDA-MB-231 cells were grown in 6 well plates and stimulated with recombinant Wnt-5a (rW5a) or the Wnt-5a derived Foxy-5 peptide (F5), for 24 h or 48 h. The ERα ligand estradiol was added for the final 22 h, and tamoxifen for the final 20 h to a subset of samples. RNA was extracted at the end time point, cDNA synthesized and subjected to RT-PCR for Cathepsin D (CATD), ER-binding fragment associated antigen 9 (EBAG9) and the housekeeping gene, β-actin.
(§1) cDNA was synthesized from 1 μg of total RNA using M-MuLV reverse transcriptase (Fermentas) in a MJ Mini Personal Thermal Cycler (Bio-Rad (Hercules Calif.)). All RT-PCR was performed in a designated clean PCR hood. RT-PCR was performed using a master mix containing with 5 μl of 10× buffer, 5 μl of 25 mM MgCl2, 1 μl 10 mM dNTP, 1 μl forward primer, 1 μl reverse primer and 0.2 μl of Taq polymerase (Fermentas (Ontario, Canada)) per sample. For detection of the progesterone receptor (PR), semi nested RT-PCR was performed to increase sensitivity, whereby 10 μl of the initial PCR reaction product was added to a second PCR reaction with a second internal reverse primer. Both A and β isoforms are amplified with these primers.

[4] = system: progesterone receptor (PR); test: Progesterone receptor mRNA by semi-nested RT-PCR in MDA-MB-231 cells; type: cell-based, human; settings: after 96 hours stimulation
From the text: A: Following treatment, cells were lysed and subjected to SDS-PAGE, transferred to nitrocellulose membranes and blotted for phospho-ERα expression. The positive control (Pos) represents cell lysates from T47D cells expressing ERα B and C: RNA was also extracted from stimulated cells and samples tested for progesterone receptor (PR) (B) and pS2 (C) mRNA using semi-nested RT-PCR. The positive control (Pos) is RNA extracted from T47D cells that express ERα. The negative control represents a water control. PCR results are representative of three separate experiments.
as §1

Molecule | apoptotic cells by Hoechst staining in response to tamoxifen [1] | ERα expression in primary tumors [2] | Estradiol induced expression of CATD [3] | Estradiol induced expression of EBAG9 [3] | PR mRNA [4]
formyl-MDGCEL (For-MDGCEL; listed as Homo sapiens) [Foxy-5] | apoptotic cells displaying altered nuclear morphology | strong ERα expression | consistently lost | consistently lost | detected
B1 | apoptotic cells displaying altered nuclear morphology | – | consistently lost | consistently lost | detected
